The values that follow come from US20230023559A1, “ARYLMETHYLENE HETEROCYCLIC COMPOUNDS AS KV1.3 POTASSIUM SHAKER CHANNEL BLOCKERS” (D. E. Shaw Research, LLC, priority 2019, published 2023).

Where only a bound is given, the exact number is not on record here.

The target of this assay is T1, Kv1.3 potassium channel (Homo sapiens, UniProt P22001).
T1 construct: expressed in transfected cells
In words: Kv1.3 potassium channel blocker activity, automated whole-cell patch clamp (Patchliner). To be noted: CHO-K1 cells stably expressing Kv1.3; whole cell current inhibition; read-out: Kv1.3_IC50. It is filed as cell-based. As to the method:
The assay described below is used to evaluate the disclosed compound's activities as Kv1.3 potassium channel blockers.
CHO-K1 cells stably expressing Kv1.3 were grown in DMEM containing 10% heat-inactivated FBS, 1 mM Sodium Pyruvate, 2 mM L-Glutamine and G418 (500 μg/ml).
All compounds were dissolved in DMSO at 30 mM.
The currents were evoked by applying 100 ms depolarizing pulses from −90 mV (holding potential) to +40 mV were applied with 0.1 Hz frequency. […] 10 second breaks were used between pulse trains (see Table A below).
Data were sampled at 10 kHz without filtering. Passive leak currents were subtracted online using a P/4 procedure (HEKA Elektronik Dr. Schulze GmbH). […] Total compound incubation time before the next pulse train was not longer than 10 seconds. Peak current inhibition was observed during compound equilibration.

T1 sequence (P22001 whole entry): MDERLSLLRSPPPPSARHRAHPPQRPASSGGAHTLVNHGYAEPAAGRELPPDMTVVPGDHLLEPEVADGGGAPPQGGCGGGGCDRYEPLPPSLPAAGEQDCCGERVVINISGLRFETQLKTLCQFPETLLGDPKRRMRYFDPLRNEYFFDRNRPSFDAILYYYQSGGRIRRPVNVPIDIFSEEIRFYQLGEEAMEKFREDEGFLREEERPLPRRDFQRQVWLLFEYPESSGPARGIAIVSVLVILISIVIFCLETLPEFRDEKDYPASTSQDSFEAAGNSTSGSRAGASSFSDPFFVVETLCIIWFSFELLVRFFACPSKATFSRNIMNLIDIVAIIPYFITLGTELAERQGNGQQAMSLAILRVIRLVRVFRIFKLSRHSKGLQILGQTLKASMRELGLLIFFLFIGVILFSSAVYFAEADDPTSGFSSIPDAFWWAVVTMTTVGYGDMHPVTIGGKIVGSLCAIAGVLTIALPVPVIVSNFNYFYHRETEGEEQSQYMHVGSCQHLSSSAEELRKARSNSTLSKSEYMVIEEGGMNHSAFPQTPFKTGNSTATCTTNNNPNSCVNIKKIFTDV

On to `N[C@@H](c1cc(Cl)c(Cl)cc1O)C1CCN(C(=O)C2CNC(=O)O2)CC1` (stereo partly drawn) [Compound 261, 5-[4-[(R)-amino(4,5-dichloro-2-hydroxyphenyl)methyl]piperidine-1-carbonyl]-1,3-oxazolidin-2-one trifluoroacetic acid], for which the half-maximal inhibitory concentration (IC50) – broadly, the concentration needed to halve the response being measured – is below 0.5 µM.

Regarding `N[C@@H](c1c(O)cc(Cl)c(Cl)c1F)C1CCN(C(=O)c2c[nH]c(=O)c(Cl)c2)CC1` [Compound 266, 5-[4-[(R)-amino(3,4-dichloro-2-fluoro-6-hydroxyphenyl)methyl]piperidine-1-carbonyl]-3-chloro-1H-pyridin-2-one Trifluoroacetic Acid], the IC50 was below 0.5 µM.

`N[C@@H](c1cc(Cl)c(Cl)cc1O)C1CCN(C(=O)c2c[nH]c(=O)c(Cl)c2)CC1` [Compound 255, 5-[4-[(R)-amino(4,5-dichloro-2-hydroxyphenyl)methyl]piperidine-1-carbonyl]-3-chloro-1H-pyridin-2-one]: the IC50 is below 0.5 µM.

For the compound `CC(=O)N[C@@H](c1cc(Cl)c(Cl)cc1O)C1CCNCC1` (single isomer, unassigned) [Compound 17], the IC50 was below 30 µM.

As for `COCCN1CCC(C(N)c2cc(Cl)c(Cl)cc2O)CC1` (stereo not drawn) [Compound 64, 2-(amino(1-(2-methoxyethyl)piperidin-4-yl)methyl)-4,5-dichlorophenol], the IC50 is below 10 µM.

For `N[C@@H](c1cc(Cl)c(Cl)cc1O)[C@H]1CCC(=O)NC1` (single isomer, unassigned; diastereoisomer 1) [Compound 38, 5-(amino(4,5-dichloro-2-hydroxyphenyl)methyl)piperidin-2-one trifluoroacetic acid diastereoisomer 1], the IC50 was below 10 µM.

Turning to `CN1CCC(C(NC(=O)C(F)(F)F)c2cc(Cl)c(Cl)cc2O)CC1` (stereo not drawn) [Compound 14, N-[(4,5-dichloro-2-hydroxyphenyl)(1-methylpiperidin-4-yl)methyl]-2,2,2-trifluoroacetamide], the concentration for half-maximal inhibition (IC50) was below 10 µM.

Regarding `Cc1cc(O)c([C@H](N)C2CCN(C(=O)c3ccncc3)CC2)cc1Cl` [Compound 234, 2-[(R)-amino[1-(pyridine-4-carbonyl)piperidin-4-yl]methyl]-4-chloro-5-methylphenol trifluoroacetic acid], the IC50 was below 0.5 µM.

Consider `N[C@@H](c1cc(Cl)c(Cl)cc1O)[C@@H]1CCCN(C(=O)[C@H](O)CO)CC1` (single isomer, unassigned; isomer 1) [Compound 333], for which the IC50 was below 10 µM.

For `CC(C)C[C@H](N)C(=O)N1CCC([C@@H](N)c2cc(Cl)c(Cl)cc2O)CC1` [Compound 93, (S)-2-amino-1-(4-((R)-amino (4,5-dichloro-2-hydroxyphenyl)methyl)piperidin-1-yl)-4-methylpentan-1-one], the concentration for half-maximal inhibition (IC50) is below 10 µM.

Turning to `CC(=O)NC(c1cc(Cl)c(Cl)cc1O)C1CCN(C(=O)[C@@H]2CCNC2)CC1` (stereo partly drawn) [Compound 108, N-((4,5-dichloro-2-hydroxyphenyl)(1-((R)-pyrrolidine-3-carbonyl)piperidin-4-yl)methyl)acetamide Trifluoroacetic Acid], the IC50 was below 10 µM.

For the compound `Cc1ccc([C@H](N)C2CCN(C(=O)[C@H](O)CO)CC2)c(O)c1` [Compound 294, (2R)-1-[4-[(R)-amino(2-hydroxy-4-methylphenyl)methyl]piperidin-1-yl]-2,3-dihydroxypropan-1-one Trifluoroacetic Acid], the concentration for half-maximal inhibition (IC50) is below 10 µM.

As to `NC(=O)CCN1CCC(C(N)c2cc(Cl)c(Cl)cc2O)CC1` (stereo not drawn) [Compound 78], the IC50 is below 10 µM.

For the compound `Nc1cnc(C(=O)N2CCC([C@@H](N)c3cc(Cl)c(Cl)cc3O)CC2)cn1` [Compound 307, 2-[(R)-amino[1-(5-aminopyrazine-2-carbonyl)piperidin-4-yl]methyl]-4,5-dichlorophenol trifluoroacetic acid], the IC50 is below 10 µM.

With `CO[C@H](CO)C(=O)N1CCC([C@@H](N)c2cc(Cl)c(C)cc2O)CC1` [Compound 250, (2R)-1-[4-[(R)-amino(5-chloro-2-hydroxy-4-methylphenyl)methyl]piperidin-1-yl]-3-hydroxy-2-methoxypropan-1-one trifluoroacetic acid], the IC50 was below 0.5 µM.
